Experimental findings from PubChem BioAssay AID1552 (Sanford-Burnham Center for Chemical Genomics, 2009) are described below.

A word on the Kd: it is the free concentration of one partner at which half of the binding sites on the other are occupied at equilibrium, for simple one-to-one binding.

The source made the active and inactive calls. No rule for the calls is given here.

Sequence of Ubiquitin-conjugating enzyme E2 N (Homo sapiens) (P61088 whole entry, looked up): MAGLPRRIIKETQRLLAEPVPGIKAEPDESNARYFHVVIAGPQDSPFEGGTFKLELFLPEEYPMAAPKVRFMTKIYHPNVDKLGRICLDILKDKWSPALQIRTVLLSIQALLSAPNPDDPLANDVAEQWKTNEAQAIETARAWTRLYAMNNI

The assay has as its target Ubiquitin-conjugating enzyme E2 N (Homo sapiens) (UniProt P61088). As to the kind of experiment: NMR detection of UBE2N ligand binding – biophysical, purified protein (AID 1552). The following applies: NMR binding to purified UBE2N.
On to `Cc1cccc(CO)n1`, for which the Kd is > 4 mM (inactive).

`Cc1c(C(=O)O)cnn1-c1ccccc1`: the Kd was > 4 mM (inactive).

`Cn1nnc2cc(C(=O)Nc3cccnc3)ccc21`: the Kd was > 4 mM (inactive).

`CN1CCN(C(=S)NC(=O)c2ccn(C)n2)CC1`: the Kd is > 4 mM (inactive).

With `O=C(O)c1ccc2c(c1)OCCCO2`, the Kd was > 4 mM (inactive).

In the case of `O=c1[nH]cc(S(=O)(=O)N2CCc3ccccc32)c(=O)[nH]1`, the Kd is > 4 mM (inactive).

Consider `OCc1nc2ccccc2s1`, for which the Kd is > 4 mM (inactive).

Regarding `O=C(c1ccco1)N1CCNCC1`, the Kd is > 4 mM (inactive).

On to `S=C(c1ccc(N2CCOCC2)cc1)N1CCOCC1`, for which the Kd is > 4 mM (inactive).

Consider `CC(=O)O[C@H]1C[C@@H](OC(C)=O)C(C)(C)C2C[C@@H](OC(C)=O)[C@@]3(C)C4=CC(=O)O[C@@H](c5ccoc5)[C@]4(C)CCC3[C@]21C` (stereo partly drawn), for which the Kd was > 4 mM (inactive).

`OCc1ccccc1O[C@@H]1O[C@H](CO)[C@@H](O)[C@H](O)[C@H]1O`: the Kd was > 4 mM (inactive).

On to `CS(=O)(=O)Nc1cc2c3c(c1)CCN3C(=O)CC2`, for which the Kd was > 4 mM (inactive).

For the compound `O=C(Nc1ccon1)c1csc2c1CCCC2`, the Kd is > 4 mM (inactive).

As to `CCOc1ccc(C(=O)c2ccc(OC)c(O)c2O)cc1`, the Kd is > 4 mM (inactive).

For `COc1c2c(cc3c1OCO3)C13C=C[C@H](OC)CC1N(C2)CC3O` (stereo partly drawn), the Kd was > 4 mM (inactive).

As for `Cc1ccc(C)n1NC(=O)c1ccco1`, the Kd is > 4 mM (inactive).

Regarding `OCc1ccc2c(c1)OCCCO2`, the Kd was > 4 mM (inactive).

Consider `COc1ccc(-c2oc3c(CC=C(C)C)c(O[C@@H]4O[C@H](CO)[C@@H](O)[C@H](O)[C@H]4O)cc(O)c3c(=O)c2O[C@@H]2O[C@@H](C)[C@H](O)[C@@H](O)[C@H]2O)cc1`, for which the Kd is > 4 mM (inactive).

Turning to `Nc1nc2ccc(C(=O)O)cc2s1`, the Kd is > 4 mM (inactive).

Consider `O=C(O)C1Cc2c([nH]c3ccccc23)CN1` (stereo not drawn), for which the Kd was > 4 mM (inactive).

`Cc1[nH]c2ccccc2c1CN(C)C`: the Kd is > 4 mM (inactive).

Regarding `COc1ccc2c(c1)OC/C(=C\c1ccc(OC)c(O)c1)C2=O`, the Kd was > 4 mM (inactive).

Consider `COc1cc(OC)c2c(=O)c(-c3ccc4c(c3)OCO4)coc2c1`, for which the Kd was > 4 mM (inactive).

On to `CCn1c(C)c(C(C)=O)c(N2CCN(C)CC2)nc1=S`, for which the Kd was > 4 mM (inactive).

As to `NC1=NCc2ccccc21`, the Kd is > 4 mM (inactive).

With `COc1ccc2c(c1)CCCN2C(N)=O`, the Kd was > 4 mM (inactive).

Turning to `CC(C)(C)c1cc(NC(=O)c2cccnc2)no1`, the Kd was > 4 mM (inactive).

`O=C(O)CCC(=O)Nc1nnc(C(F)(F)F)s1`: the Kd is > 4 mM (inactive).

Take `O=C1N/C(=N\c2ccccn2)SC1Cc1ccccc1` (stereo not drawn): the Kd is > 4 mM (inactive).

For the compound `c1ccc2[nH]c(CCn3cncn3)nc2c1`, the Kd was > 4 mM (inactive).

As for `CCNC(=S)N1CCCC(C(N)=O)C1` (stereo not drawn), the Kd was > 4 mM (inactive).

In the case of `Cc1nc2ccc(NC(=O)N3CCSCC3)cc2s1`, the Kd is > 4 mM (inactive).

Turning to `CC1(C)CN=C(Nc2nc3ccccc3s2)S1`, the Kd was > 4 mM (inactive).

For the compound `O=S1(=O)CCC(NC(=S)N2CCCCC2)C1` (stereo not drawn), the Kd was > 4 mM (inactive).

Take `CO[C@H]1[C@@H](O)[C@@H](C)O[C@H](O[C@H]2CCC3(C)C4CCC5(C)[C@@H](C6=CC(=O)OC6)CC[C@]5(O)[C@@H]4CC[C@]3(O)C2)[C@@H]1O` (stereo partly drawn): the Kd was > 4 mM (inactive).

For `C/C=C(\C)C(=O)O[C@@H]1c2c(ccc3ccc(=O)oc23)OC(C)(C)[C@@H]1OC(C)=O`, the Kd was > 4 mM (inactive).

Take `O=C(NC1CC1)c1ccccc1[N+](=O)[O-]`: the Kd was > 4 mM (inactive).

Take `Clc1ccccc1OCCn1ccnc1`: the Kd is > 4 mM (inactive).

For the compound `O=C1CNc2cc(C(=O)O)ccc2N1`, the Kd was > 4 mM (inactive).

Regarding `COC(=O)c1nc(-c2ccccc2)oc1N(C)C`, the Kd was > 4 mM (inactive).

Regarding `NC(=O)Cn1nc2c3c(cccc3c1=O)-c1ccccc1-2`, the Kd is > 4 mM (inactive).

As for `Cc1ccc(NC(=O)/C=C2\SC(=O)NC2=O)cc1`, the Kd is > 4 mM (inactive).

Consider `Cc1cc(NC(=O)c2cnn3cccnc23)no1`, for which the Kd is > 4 mM (inactive).

Consider `CSc1ccccc1NC(=O)c1ccncc1`, for which the Kd is > 4 mM (inactive).

`Cc1cc(=O)[nH]c(N2CCN(Cc3ccccc3)CC2)n1`: the Kd is > 4 mM (inactive).

Turning to `O=C(c1ccco1)N1C(=O)c2cccc3cccc1c23`, the Kd was > 4 mM (inactive).

Take `O=C(O)c1csc(-c2cccs2)n1`: the Kd is > 4 mM (inactive).

For `COC(=O)c1ccccc1C`, the Kd was > 4 mM (inactive).

With `CC(=O)Nc1ccc(S(=O)(=O)NC2=NCCS2)cc1`, the Kd was > 4 mM (inactive).

`CC(=O)Nc1cnn(Cc2ccc(Br)cc2)c1`: the Kd was > 4 mM (inactive).

For the compound `CC1CCN(S(=O)(=O)N(C)C)CC1`, the Kd is > 4 mM (inactive).

As for `COc1ccc(CN2CCC(O)CC2)c(O)c1`, the Kd is > 4 mM (inactive).

On to `OCc1ccccc1N1CCOCC1`, for which the Kd is > 4 mM (inactive).

For `O=C(O)CCC(=O)Nc1ccccn1`, the Kd is > 4 mM (inactive).

As to `COc1c(C)c2c(c(O)c1C/C=C(\C)CCC(=O)O)C(=O)OC2`, the Kd was > 4 mM (inactive).

As to `CC(=O)NCC1OCCc2ccccc21` (stereo not drawn), the Kd was > 4 mM (inactive).

On to `O=C(Nc1ccc2c(c1)OCO2)c1cccc(F)c1`, for which the Kd was > 4 mM (inactive).

Take `CC1(O)CC2C(CC1O)C2(C)C` (stereo not drawn): the Kd was > 4 mM (inactive).

`O=Cc1c(N2CCOCC2)nc2ccccn2c1=O`: the Kd was > 4 mM (inactive).

With `CC(C)NC(=O)c1cc(-n2cnnc2)ccc1Cl`, the Kd is > 4 mM (inactive).

For `CCSc1nc(=S)n(CC)c(C)c1C(C)=O`, the Kd was > 4 mM (inactive).

With `CCCCCc1c2c(cc(O)c1C(=O)O)OC(=O)c1c(cc(OC)cc1C(=O)CCCC)O2`, the Kd was > 4 mM (inactive).

Regarding `O=C1CCC(C(=O)NCc2cccnc2)N1` (stereo not drawn), the Kd was > 4 mM (inactive).

Consider `O=C(Nc1ccccc1)C(=O)NC1CC1`, for which the Kd was > 4 mM (inactive).

On to `CCNC(=O)CC1Nc2ccccc2NC1=O` (stereo not drawn), for which the Kd was > 4 mM (inactive).

For `OCCN1CCN(C(=S)c2ccc(Cl)cc2)CC1`, the Kd is > 4 mM (inactive).

In the case of `NCC(O)c1ccc(O)cc1` (stereo not drawn), the Kd was > 4 mM (inactive).

As to `CN(C)S(=O)(=O)Nc1ccc(Br)cc1F`, the Kd is > 4 mM (inactive).

With `Cc1cc(C(=O)NC(C)c2ccncc2)no1` (stereo not drawn), the Kd was > 4 mM (inactive).

As to `CC(=O)c1c(C)nc(-c2ccc(F)cc2)n1O`, the Kd is > 4 mM (inactive).

Turning to `CC(=O)O[C@@H]1CC2C(C)(C)C(=O)C=C[C@]2(C)C2CC[C@]3(C)C(=CC(=O)O[C@H]3c3ccoc3)[C@@]21C` (stereo partly drawn), the Kd is > 4 mM (inactive).

Turning to `CC(=O)c1csc(-c2cc(C)on2)n1`, the Kd was > 4 mM (inactive).

For `c1ccc2c(c1)CN1CCCC1=N2`, the Kd is > 4 mM (inactive).

On to `O=C(Nc1nnc(-c2ccco2)o1)c1ccc([N+](=O)[O-])o1`, for which the Kd is > 4 mM (inactive).

As to `Cc1ccc(-c2c(C)n([O-])c3c([n+]2=O)CCCC3)o1`, the Kd is > 4 mM (inactive).

Take `NC(=O)CSc1nnc2ccc(-c3ccccn3)nn12`: the Kd was > 4 mM (inactive).

Turning to `CC(C)[C@@H]1CC[C@@H](C)C[C@H]1O`, the Kd is > 4 mM (inactive).

For the compound `Nc1ccc(-n2cccc2)cc1`, the Kd was > 4 mM (inactive).

For `CC(=O)NC(=S)Nc1ccc(S(N)(=O)=O)cc1`, the Kd is > 4 mM (inactive).

With `Nc1ncnc(NCCO)c1[N+](=O)[O-]`, the Kd was > 4 mM (inactive).

As to `c1cncc(Cn2cccc2)c1`, the Kd was > 4 mM (inactive).

With `Nc1ncnc(Cl)c1[N+](=O)[O-]`, the Kd is > 4 mM (inactive).

Turning to `Cc1cc(=O)cc(C)n1NC(N)=S`, the Kd was > 4 mM (inactive).

Consider `Cc1ccc(NC(=O)N2CCC(C(N)=O)CC2)cc1`, for which the Kd was > 4 mM (inactive).

Regarding `N#Cc1nc(N2CCCCC2)nc(N2CCOCC2)n1`, the Kd was > 4 mM (inactive).

Consider `NC1CS(=O)(=O)CC1O` (stereo not drawn), for which the Kd is > 4 mM (inactive).

For the compound `COC(=O)Cc1cc(=O)n(-c2nc3ccccc3s2)[nH]1`, the Kd is > 4 mM (inactive).

Take `CN(C)C(=O)CSc1nc2ccccc2c(=O)[nH]1`: the Kd is > 4 mM (inactive).

As for `Cc1csc(SCC(=O)N2CCCC2)n1`, the Kd is > 4 mM (inactive).

As to `Cc1ccc2c(C)c(C(=O)Nc3nnc(C)s3)oc2c1`, the Kd was > 4 mM (inactive).

With `O=C(Nc1cccnc1)Nc1ccc2c(c1)OCO2`, the Kd was > 4 mM (inactive).

On to `COc1ccc(C2CC(=O)c3ccc(OC)cc3O2)cc1` (stereo not drawn), for which the Kd was > 4 mM (inactive).

Turning to `CC12CC[C@H](CC1=O)C2(C)C`, the Kd is > 4 mM (inactive).

As to `COc1ccc(-c2cc(=O)c3ccccc3o2)cc1`, the Kd is > 4 mM (inactive).

On to `COC(=O)[C@]1(C)CC[C@]2(C)CC[C@]3(C)C4=CCc5c(cc(O)c(O)c5C)[C@]4(C)CC[C@@]3(C)C2C1` (stereo partly drawn), for which the Kd is > 4 mM (inactive).

`O=C(NC1CSCC1O)c1ccccc1` (stereo not drawn): the Kd was > 4 mM (inactive).

Take `O=C(NCc1cccs1)c1ccncc1`: the Kd was > 4 mM (inactive).

`COc1ccc(S(=O)(=O)NCCO)cc1`: the Kd was > 4 mM (inactive).

As for `Cc1ccccc1C(=O)Nn1cnnc1`, the Kd is > 4 mM (inactive).

Turning to `Cn1c(CO)nc2cc(N)ccc21`, the Kd was > 4 mM (inactive).

As for `OCc1cccc2c1OCCO2`, the Kd was > 4 mM (inactive).

`CCCCN1C(=O)C2CC/C(=N/O)CC2C1=O` (stereo not drawn): the Kd was > 4 mM (inactive).

Consider `O=S(=O)(c1cccc(Cl)c1)N1CCCC1`, for which the Kd was > 4 mM (inactive).
